Drawing on patent US8697739B2, “Bicyclic acetyl-CoA carboxylase inhibitors and uses thereof” (Novartis AG, priority 2010, dated 2014), this text covers IC50 for 22 compounds.

T1 sequence (O00763 144-2458): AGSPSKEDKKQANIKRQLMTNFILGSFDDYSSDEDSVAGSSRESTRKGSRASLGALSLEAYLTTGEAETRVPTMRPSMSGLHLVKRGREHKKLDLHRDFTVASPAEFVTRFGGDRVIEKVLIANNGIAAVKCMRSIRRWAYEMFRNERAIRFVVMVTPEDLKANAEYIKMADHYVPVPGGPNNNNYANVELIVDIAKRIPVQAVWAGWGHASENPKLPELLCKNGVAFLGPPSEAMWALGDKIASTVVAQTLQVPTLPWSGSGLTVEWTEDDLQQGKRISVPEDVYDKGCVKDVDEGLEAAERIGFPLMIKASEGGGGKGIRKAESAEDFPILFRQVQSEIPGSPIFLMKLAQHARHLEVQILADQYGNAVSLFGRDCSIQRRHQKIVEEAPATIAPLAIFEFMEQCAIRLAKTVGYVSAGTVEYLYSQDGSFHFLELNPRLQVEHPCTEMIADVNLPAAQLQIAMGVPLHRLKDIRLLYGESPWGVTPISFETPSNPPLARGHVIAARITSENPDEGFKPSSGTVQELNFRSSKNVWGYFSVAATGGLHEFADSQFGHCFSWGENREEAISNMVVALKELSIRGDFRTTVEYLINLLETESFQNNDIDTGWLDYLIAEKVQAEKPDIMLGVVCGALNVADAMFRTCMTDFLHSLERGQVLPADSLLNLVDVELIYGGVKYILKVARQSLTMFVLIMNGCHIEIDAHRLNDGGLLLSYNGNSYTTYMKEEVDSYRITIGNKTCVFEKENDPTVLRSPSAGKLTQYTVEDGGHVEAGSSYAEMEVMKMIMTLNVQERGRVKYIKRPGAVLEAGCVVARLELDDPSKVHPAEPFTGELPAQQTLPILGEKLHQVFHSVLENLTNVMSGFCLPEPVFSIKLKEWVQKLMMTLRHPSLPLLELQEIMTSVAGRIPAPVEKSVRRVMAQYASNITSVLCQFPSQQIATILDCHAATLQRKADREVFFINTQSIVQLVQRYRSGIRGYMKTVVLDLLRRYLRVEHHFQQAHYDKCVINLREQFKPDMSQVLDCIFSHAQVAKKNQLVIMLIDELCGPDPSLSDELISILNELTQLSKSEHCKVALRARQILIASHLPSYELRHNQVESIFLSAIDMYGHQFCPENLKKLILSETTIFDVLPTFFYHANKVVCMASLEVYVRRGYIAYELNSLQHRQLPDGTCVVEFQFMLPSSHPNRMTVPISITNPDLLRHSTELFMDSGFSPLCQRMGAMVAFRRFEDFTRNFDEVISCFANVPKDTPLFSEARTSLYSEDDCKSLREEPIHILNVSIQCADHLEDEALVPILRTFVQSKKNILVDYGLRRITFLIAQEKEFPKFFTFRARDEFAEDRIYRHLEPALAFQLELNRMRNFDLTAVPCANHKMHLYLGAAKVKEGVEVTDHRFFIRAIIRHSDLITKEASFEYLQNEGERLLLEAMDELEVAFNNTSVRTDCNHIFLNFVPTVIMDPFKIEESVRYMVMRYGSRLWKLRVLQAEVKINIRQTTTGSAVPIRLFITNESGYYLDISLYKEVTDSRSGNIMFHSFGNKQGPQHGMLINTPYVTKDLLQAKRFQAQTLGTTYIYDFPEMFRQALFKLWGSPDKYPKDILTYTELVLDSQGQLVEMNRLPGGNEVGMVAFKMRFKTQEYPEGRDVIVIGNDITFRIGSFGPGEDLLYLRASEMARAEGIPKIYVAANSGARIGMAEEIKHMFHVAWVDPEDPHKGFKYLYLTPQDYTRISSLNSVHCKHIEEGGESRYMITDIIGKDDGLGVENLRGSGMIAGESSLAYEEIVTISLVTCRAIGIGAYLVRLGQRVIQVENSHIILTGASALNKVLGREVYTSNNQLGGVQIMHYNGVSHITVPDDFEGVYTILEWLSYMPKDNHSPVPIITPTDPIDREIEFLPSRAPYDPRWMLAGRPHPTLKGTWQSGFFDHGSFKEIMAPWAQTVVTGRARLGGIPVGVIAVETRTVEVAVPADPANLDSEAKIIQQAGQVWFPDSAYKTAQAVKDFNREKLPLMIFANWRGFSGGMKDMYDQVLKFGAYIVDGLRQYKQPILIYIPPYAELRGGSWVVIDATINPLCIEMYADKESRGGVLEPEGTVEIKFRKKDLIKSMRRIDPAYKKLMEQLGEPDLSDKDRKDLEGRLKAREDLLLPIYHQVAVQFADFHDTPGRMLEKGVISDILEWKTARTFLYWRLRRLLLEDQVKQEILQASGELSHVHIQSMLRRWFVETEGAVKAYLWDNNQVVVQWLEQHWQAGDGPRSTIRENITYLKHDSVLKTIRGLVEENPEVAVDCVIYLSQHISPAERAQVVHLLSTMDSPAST

This test concerns the target T1, human acetyl-CoA carboxylase 2 (ACC2) (Homo sapiens, UniProt O00763).
T1 construct: The cDNA encoding amino acids 144 to 2458 of human acetyl-CoA carboxylase 2; made in house; host or cells: Sf9 insect cells (baculovirus, pFastBac1)
Briefly: Acetyl-CoA carboxylase enzyme assay (malonyl-CoA formation by LC/MS/MS). Type of test: biochemical. The note with it: recombinant human ACC2 (aa 144-2458); read-out: IC50 ACC2. The essentials:
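Malonyl-CoA formation was read by LC/MS/MS MRM against a [13C3]-malonyl-CoA internal standard, after acetic acid quench. The enzyme was baculovirus/Sf9-expressed human ACC2 residues 144–2458, given 15 minutes room-temperature compound preincubation in HEPES pH 7.5 buffer with MgCl2, citrate and DTT. Substrate solution held 50 μM acetyl-CoA, 120 μM ATP and 2 mM KHCO3.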
Consider `C[C@@H](NC(=O)[C@H]1CC[C@H](NS(=O)(=O)c2ccc3[nH]c(-c4ccccc4)cc3c2)CC1)c1ccc(F)cc1` [Example 102, (1r,4R)-N-((R)-1-(4-fluorophenyl)ethyl)-4-(2-phenyl-1H-indole-5-sulfonamido)cyclohexanecarboxamide], for which the half-inhibitory concentration (IC50) came to 45 nM.

For `CC(NC(=O)[C@H]1CC[C@H](NS(=O)(=O)c2cnc3ccccc3c2)CC1)c1cnn(C)c1` (stereo partly shown) [Example 62, (1r,4r)-N-(1-(1-methyl-1H-pyrazol-4-yl)ethyl)-4-(quinoline-3-sulfonamido)cyclohexanecarboxamide], the IC50 was above 35000 nM.

Regarding `C[C@@H](NC(=O)[C@H]1CC[C@H](NS(=O)(=O)c2cnc3ccccc3c2)CC1)c1ccc(F)cc1` [Example 105, (1r,4R)-N-((R)-1-(4-fluorophenyl)ethyl)-4-(quinoline-3-sulfonamido)cyclohexanecarboxamide], the IC50 was determined as 252 nM.

As for `CC(NC(=O)[C@H]1CC[C@H](NS(=O)(=O)c2ccc3c(c2)N(C)CCC3)CC1)c1ccccn1` (stereo partly shown) [Example 159, (1r,4r)-4-(1-methyl-1,2,3,4-tetrahydroquinoline-7-sulfonamido)-N-(1-(pyridin-2-yl)ethyl)cyclohexanecarboxamide], the IC50 amounted to 345 nM.

For `C[C@H]1COCCN1C(=O)[C@H]1CC[C@H](NS(=O)(=O)c2ccc3cc(-c4ccc(CCC(=O)O)cc4)n(C)c3c2)CC1` [Example 427, 3-(4-(1-methyl-6-(N-((1S,4r)-4-((S)-3-methylmorpholine-4-carbonyl)cyclohexyl)sulfamoyl)-1H-indol-2-yl)phenyl)propanoic acid], the IC50 is 15 nM.

As to `CC(C)c1nnc(-c2ccc(NS(=O)(=O)c3ccc4[nH]c(Nc5ccc(N6CCN(C)CC6)cc5)nc4c3)cc2)o1` [Example 605, N-(4-(5-isopropyl-1,3,4-oxadiazol-2-yl)phenyl)-2-(4-(4-methylpiperazin-1-yl)phenylamino)-1H-benzo[d]imidazole-5-sulfonamide], the IC50 stood at 138 nM.

Regarding `CCOC(=O)N1CCNc2ncc(S(=O)(=O)N[C@H]3CC[C@H](C(=O)N[C@H](C)c4ccc(F)cc4)CC3)cc21` [Example 209, ethyl 7-(N-((1R,4r)-4-((R)-1-(4-fluorophenyl)ethylcarbamoyl)cyclohexyl)sulfamoyl)-3,4-dihydropyrido[3,2-b]pyrazine-1(2H)-carboxylate], the IC50 was 20 nM.

As for `COCCOc1ccc(-c2cc3ccc(S(=O)(=O)N[C@H]4CC[C@H](C(=O)N5CCC[C@@H]5C(C)(C)O)CC4)cc3n2C)cc1` [Example 451, N-((1R,4r)-4-((R)-2-(2-hydroxypropan-2-yl)pyrrolidine-1-carbonyl)cyclohexyl)-2-(4-(2-methoxyethoxy)phenyl)-1-methyl-1H-indole-6-sulfonamide], the IC50 came to 80 nM.

As to `C[C@@H](NC(=O)[C@H]1CC[C@H](NS(=O)(=O)c2ccc3nc(OC4COC4)ccc3c2)CC1)c1ccccn1` [Example 83, (1r,4R)-4-(2-(oxetan-3-yloxy)quinoline-6-sulfonamido)-N-((R)-1-(pyridin-2-yl)ethyl)cyclohexanecarboxamide], the IC50 is 855 nM.

For `Cc1cc2c(cc1S(=O)(=O)N[C@H]1CC[C@H](C(=O)N[C@H](C)c3ccc(F)cc3)CC1)NCCC2` [Example 188, (1r,4R)-N-((R)-1-(4-fluorophenyl)ethyl)-4-(6-methyl-1,2,3,4-tetrahydroquinoline-7-sulfonamido)cyclohexanecarboxamide], the IC50 stood at 375 nM.

On to `COC[C@@H](NC(=O)[C@H]1CC[C@H](NS(=O)(=O)c2ccc3cc(C4CC4)n(C)c3c2)CC1)c1ccccc1` [Example 377, (1r,4S)-4-(2-cyclopropyl-1-methyl-1H-indole-6-sulfonamido)-N-((S)-2-methoxy-1-phenylethyl)cyclohexanecarboxamide], for which the IC50 is 10 nM.

Consider `CC(C)OC(=O)c1ccc(NS(=O)(=O)c2ccc3[nH]c(Nc4ccc(F)c(Cl)c4)nc3c2)cc1` [Example 542, isopropyl 4-(2-(3-chloro-4-fluorophenylamino)-1H-benzo[d]imidazole-5-sulfonamido)benzoate], for which the 50% inhibitory concentration (IC50) stood at 575 nM.

Take `C[C@@H](NC(=O)[C@H]1CC[C@H](NS(=O)(=O)c2ccc3c(c2)CCC3)CC1)c1ccc(F)cc1` [Example 119, (1r,4R)-4-(2,3-dihydro-1H-indene-5-sulfonamido)-N-((R)-1-(4-fluorophenyl)ethyl)cyclohexanecarboxamide]: the IC50 worked out at 161 nM.

In the case of `CC(C)c1nnc(-c2ccc(NS(=O)(=O)c3ccc4[nH]c(-c5ccc(N6CCN(C)CC6)cc5)nc4c3)cc2)o1` [Example 590, N-(4-(5-isopropyl-1,3,4-oxadiazol-2-yl)phenyl)-2-(4-(4-methylpiperazin-1-yl)phenyl)-1H-benzo[d]imidazole-5-sulfonamide], the IC50 came to 430 nM.

On to `CC(C)OC(=O)c1ccc(NS(=O)(=O)c2ccc3nc(-c4ccc(C(C)(C)C)cc4)[nH]c3c2)cc1` [Example 512, isopropyl 4-(2-(4-tert-butylphenyl)-1H-benzo[d]imidazole-6-sulfonamido)benzoate], for which the IC50 was determined as 2290 nM.

In the case of `C[C@@H](NC(=O)[C@H]1CC[C@H](NS(=O)(=O)c2ccc3c(c2)CCCN3)CC1)c1ccc(F)cc1` [Example 152, (1r,4R)-N-((R)-1-(4-fluorophenyl)ethyl)-4-(1,2,3,4-tetrahydroquinoline-6-sulfonamido)cyclohexanecarboxamide], the IC50 was 60 nM.

In the case of `CN1CCN(C)c2ncc(S(=O)(=O)N[C@H]3CC[C@H](C(=O)N4CCNCC4c4ccccc4)CC3)cc21` (stereo partly shown) [Example 183, 1,4-dimethyl-N-((1r,4r)-4-(2-phenylpiperazine-1-carbonyl)cyclohexyl)-1,2,3,4-tetrahydropyrido[3,2-b]pyrazine-7-sulfonamide], the IC50 came out at 135 nM.

In the case of `C[C@@H](NC(=O)[C@H]1CC[C@H](NS(=O)(=O)c2ccc3cc(-c4ccc(CO)cc4)[nH]c3c2)CC1)c1ccc(F)cc1` [Example 296, (1r,4R)-N-((R)-1-(4-fluorophenyl)ethyl)-4-(2-(4-(hydroxymethyl)phenyl)-1H-indole-6-sulfonamido)cyclohexanecarboxamide], the IC50 is below 10 nM.

For `COC(=O)C12CC3CC(C1)C(NS(=O)(=O)c1ccc4oc5ccccc5c4c1)C(C3)C2` (stereo not shown) [Example 265, 4-(Dibenzofuran-2-sulfonylamino)-adamantane-1-carboxylic acid methyl ester], the half-inhibitory concentration (IC50) was found to be 685 nM.

On to `C[C@@H](NC(=O)[C@H]1CC[C@@H](NS(=O)(=O)c2cnc3c(c2)NCC(C)(C)CN3)CC1)c1ccc(F)cc1` [Example 154, (1s,4S)-4-(3,3-dimethyl-2,3,4,5-tetrahydro-1H-pyrido[2,3-b][1,4]diazepine-8-sulfonamido)-N-((R)-1-(4-fluorophenyl)ethyl)cyclohexanecarboxamide], for which the 50% inhibitory concentration (IC50) worked out at 1990 nM.

On to `COCCCNC(=O)[C@H]1CC[C@H](NS(=O)(=O)c2ccc3[nH]c(-c4ccccc4)nc3c2)CC1` [Example 642, (1r,4r)-N-(3-methoxypropyl)-4-(2-phenyl-1H-benzo[d]imidazole-5-sulfonamido)cyclohexanecarboxamide], for which the half-maximal inhibitory concentration (IC50) is 1340 nM.

In the case of `CCc1ccc2cc(S(=O)(=O)N[C@H]3CC[C@H](C(=O)N[C@H](C)c4ccc(F)cc4)CC3)ccc2n1` [Example 74, (1r,4R)-4-(2-ethylquinoline-6-sulfonamido)-N-((R)-1-(4-fluorophenyl)ethyl)cyclohexanecarboxamide], the IC50 turned out to be 160 nM.

The IC50 is the concentration needed to halve the response being measured.
